This is an account of results in ChEMBL document CHEMBL1201862, “PubChem BioAssay data set” (2004).

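Cells were grown in 96-well plates and exposed to each compound for 48 hours at five concentrations; endpoints were interpolated linearly between bracketing concentrations, or set to the highest concentration if not reached. At the GI50, growth is halved.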 Active and inactive are the calls of the source. No stated cut-off is given here; in the data, active = GI50 up to about 1.1 µM and inactive = higher.

Some test systems named below: 786-0; BT-549; CAKI-1; CCRF-CEM; EKVX; HT-29; IGROV-1; KM12; M14; MCF7; NCI-H226; NCI-H23; OVCAR-8; PC-3; SK-MEL-2; SNB-75; SNB-78; TK-10; UACC-257; UACC-62.
Common to all, as to experiment: growth of human tumour cells (NCI), 48 h

Consider `CN1C(=O)CC2(C)c3cc(O)ccc3N(C)C12` (stereo not given), for which the GI50 in the assay on 786-0 is 15 µM (inactive); in the assay with BT-549 it was 16.9 µM (inactive); in the assay on CAKI-1 it was 23.8 µM (inactive); in the assay with CCRF-CEM it was 13.2 µM (inactive); in the assay with EKVX it was 37.8 µM (inactive); with HT-29, 30.5 µM (inactive). Also, the GI50 is 46.6 µM (inactive) with IGROV-1; 31.3 µM (inactive) in the assay on KM12; 27.2 µM (inactive) in the assay with M14; 18.6 µM (inactive) with MCF7; 40.6 µM (inactive) with NCI-H226; 42.3 µM (inactive) in the assay with NCI-H23. In addition, the GI50 in the assay with OVCAR-8 was 30.8 µM (inactive); with PC-3, 41.5 µM (inactive); with SK-MEL-2, 41.5 µM (inactive); with SNB-75, 30.8 µM (inactive); in the assay on SNB-78, > 67.3 µM (inactive); in the assay on TK-10, > 90.4 µM (inactive). For the same molecule, the GI50 with UACC-257 is > 68.2 µM (inactive); in the assay with UACC-62, 20.1 µM (inactive).

`CC[C@@]1(O)C(=O)OCc2c1cc1n(c2=O)Cc2cc3cc4c(cc3nc2-1)OCO4`: the GI50 is < 0.001 µM (active) in the assay on 786-0; 0.0118 µM (active) with BT-549; 0.00173 µM (active) with CAKI-1; < 0.001 µM (active) in the assay on CCRF-CEM; 0.0881 µM (active) in the assay on EKVX; 0.00472 µM (active) with HT-29. Moreover, the GI50 with IGROV-1 is 0.00948 µM (active); in the assay with M14 it was < 0.001 µM (active); with MCF7 it was 0.01 µM (active); in the assay on NCI-H226 it was 0.00168 µM (active); in the assay with NCI-H23, 0.00114 µM (active); in the assay on OVCAR-8, 0.00189 µM (active). The GI50 in the assay with PC-3 is 0.00746 µM (active); with SK-MEL-2, 0.0224 µM (active); with SNB-75 it was 0.00148 µM (active); with SNB-78, 0.376 µM (active); in the assay on TK-10 it was 0.502 µM (active); with UACC-257, 0.054 µM (active). Further, in the assay with UACC-62, the GI50 was < 0.001 µM (active).

On to `COc1cc(Cc2nccc3cc(OC)c(OC)cc23)c(C(C)=O)cc1OC`, for which the GI50 in the assay on 786-0 is 65.2 µM (inactive); in the assay on BT-549, > 100 µM (inactive); in the assay with CAKI-1 it was > 300 µM (inactive); with EKVX, 205 µM (inactive); in the assay on HT-29, 199 µM (inactive); in the assay with IGROV-1, 173 µM (inactive). Besides, the GI50 in the assay with KM12 is 160 µM (inactive); in the assay with M14, 187 µM (inactive); in the assay with MCF7, 144 µM (inactive); with NCI-H226 it was 10.8 µM (inactive); with NCI-H23 it was 124 µM (inactive); in the assay on PC-3, > 100 µM (inactive). In addition, the GI50 in the assay with SK-MEL-2 was 226 µM (inactive); in the assay with SNB-75, 3.09 µM (inactive); in the assay with SNB-78, 74.6 µM (inactive); with TK-10, 139 µM (inactive); in the assay on UACC-62, 53 µM (inactive).

Regarding `Clc1ccc2c(NCCCCCCNc3ccnc4cc(Cl)ccc34)ccnc2c1`, the GI50 with 786-0 is 1.97 µM (inactive); in the assay with BT-549, 11.6 µM (inactive); in the assay on CAKI-1 it was 9.04 µM (inactive); with CCRF-CEM, 2.34 µM (inactive); in the assay on EKVX it was 6.97 µM (inactive); in the assay with HT-29 it was 1.99 µM (inactive). In addition, the GI50 in the assay on IGROV-1 is 4.8 µM (inactive); with KM12 it was 2.66 µM (inactive); in the assay with M14 it was 1.88 µM (inactive); with MCF7, 2.51 µM (inactive); with NCI-H226 it was 10.4 µM (inactive); in the assay with NCI-H23, 12.3 µM (inactive). Also, the GI50 with OVCAR-8 was 2.05 µM (inactive); in the assay with PC-3, 3.65 µM (inactive); with SK-MEL-2 it was 5.97 µM (inactive); in the assay on SNB-75 it was 2.73 µM (inactive); in the assay with SNB-78, 1.86 µM (inactive); in the assay with TK-10 it was 6.78 µM (inactive). Also, the results for the GI50 with UACC-257 and in the assay on UACC-62 were 7.57 µM (inactive) and 3.86 µM (inactive), respectively.

`O=c1c2c(nc3n1CCC3)sc1c(O)c(Br)ccc12`: the GI50 was 17.5 µM (inactive) with 786-0; > 100 µM (inactive) with CAKI-1; 15.5 µM (inactive) in the assay on CCRF-CEM; 23.9 µM (inactive) in the assay on EKVX; 12.5 µM (inactive) in the assay on HT-29; 24.1 µM (inactive) in the assay with IGROV-1. The GI50 with KM12 is 14.3 µM (inactive); in the assay on M14, > 100 µM (inactive); with NCI-H226 it was 19.6 µM (inactive); with NCI-H23, 27 µM (inactive); with OVCAR-8, 10.7 µM (inactive); with SK-MEL-2, 20.7 µM (inactive). The GI50 in the assay with SNB-75 is > 100 µM (inactive); with SNB-78, 33.3 µM (inactive); in the assay on TK-10, 19.1 µM (inactive); in the assay on UACC-257 it was 16.6 µM (inactive); in the assay on UACC-62, 17.4 µM (inactive).

Regarding `CCCCCCCCCCCOc1ccc(C(=O)C(=O)c2ccc(OCCCCCCCCCCC)c(OCCCCCCCCCCC)c2)cc1OCCCCCCCCCCC`, the GI50 in the assay with 786-0, with CAKI-1, in the assay on CCRF-CEM, with EKVX, with HT-29 and in the assay with IGROV-1 was > 100 µM (inactive) each time. Also, the GI50 in the assay with KM12, with M14, in the assay on NCI-H226, in the assay on NCI-H23, with OVCAR-8 and in the assay on SK-MEL-2 was > 100 µM (inactive) throughout. In addition, the GI50 in the assay on SNB-75 was 31.3 µM (inactive); with SNB-78 it was > 100 µM (inactive); with TK-10, > 100 µM (inactive); with UACC-257, > 100 µM (inactive); with UACC-62, > 100 µM (inactive).

`CCCCCCCCC(=O)NCCN(CCN)C(=O)CCCCCCCC`: the GI50 with 786-0 is 4.9 µM (inactive); in the assay with BT-549, 3.44 µM (inactive); in the assay on CAKI-1, 17.5 µM (inactive); with CCRF-CEM it was 2.38 µM (inactive); with EKVX, 18.2 µM (inactive); in the assay on HT-29, 3.3 µM (inactive). Further, the GI50 is 7.46 µM (inactive) with IGROV-1; 2.48 µM (inactive) in the assay with KM12; 8.81 µM (inactive) with M14; 4.75 µM (inactive) with MCF7; 18.5 µM (inactive) in the assay with NCI-H226; 17.3 µM (inactive) in the assay on NCI-H23. The GI50 with OVCAR-8 was 10.7 µM (inactive); in the assay with PC-3, 10.7 µM (inactive); with SK-MEL-2, 15.1 µM (inactive); with SNB-75, 7 µM (inactive); in the assay with SNB-78, 10.4 µM (inactive); in the assay on TK-10 it was 14.6 µM (inactive). The GI50 is 18.4 µM (inactive) with UACC-257 and 10.7 µM (inactive) in the assay on UACC-62.
